The source of these data is article PMC7734798 (ACS Medicinal Chemistry Letters, 2020).

Where “and” joins values, the source holds several entries; their conditions need not be identical. Identical values can stand only once. Like-named read-outs stand apart in the source and are kept apart here.

The test system of data set [1] is primary rat cerebellar granule neurons (CGNs). The conditions noted are these: for cell survival/death in CGNs, % mean ± SE of controls (MTT): 24 h treatment.
The subject of data set [2] is human liver carcinoma immortalized cell line (HepG2). The conditions noted are these: 24 h treatment.
For data set [3] the following is noted: PAMPA.
Data set [4] can be described thus: PAMPA-BBB permeation assay. The settings on record: PAMPA-BBB prediction.
A further data set has as its system Oli-Neu cells. The data set can be described thus: Oli-Neu cell proliferation and differentiation assay: cell counting and measure of filaments. It is filed as cell-based, mouse. The settings on record: 5 μM, 48 h. From the text: (§1) OPC proliferation and migration to the CNS injury site as well as their differentiation are critical steps toward remyelination in MS. HDAC activity plays a crucial role in OPC proliferation/differentiation; therefore, HDAC modulation is widely considered a promising therapeutic target for MS.[30] […] Therefore, we tested the effect of our compounds on OPC proliferation and differentiation, through cell counting, measure of filaments, and analysis of proliferation/differentiation markers (Figure 7).
Oli-Neu cells were grown in SATO medium (DMEM medium, 2 mM glutamine, 10 μg/ml insulin, 5.5 μg/ml transferrin, 38.72 nM sodium selenite, 100 µM putrescine, 520 nM L-thyroxine (T4), 500 nM triiodo-L-thyronine (T3), 200 nM progesterone, 25 μg/ml of gentamycin) supplemented with 1% heat-inactivated horse serum (HS) in a humidified, 5% CO2 incubator at 37°C. Cell culture medium and all chemicals were from Sigma-Aldrich, except for insulin-transferrin-sodium selenite 100X supplement (Life Technologies Corporation). Cells were plated on 96 well plates, previously coated with 10 μg/mL poly-L-lysine (Sigma-Aldrich; 10 μg/ml) at the density of 2.5 x 10 4/0.2 mL medium/well and treated with increasing concentrations of the compounds (0.5, 1, 5 and 10 μM). […]
(§2) Oli-Neu cells proliferation and differentiation assay
48 hours, for cell counting and measure of filaments, 5 random images for each condition were acquired with an Eclipse TS100 (Nikon) microscope using a 10X objective. Cells number and filament length were measured with Fiji ImageJ2 software. […]

The subject of the next data set is CNPase. The data set can be described thus: Oli-Neu differentiation marker CNPase expression (Western blot). The format is cell-based, mouse. The conditions noted are these: Oli-Neu cells, 5 μM, 72 h. From the text:
OPC proliferation and migration to the CNS injury site as well as their differentiation are critical steps toward remyelination in MS. HDAC activity plays a crucial role in OPC proliferation/differentiation; therefore, HDAC modulation is widely considered a promising therapeutic target for MS.[30] […] Therefore, we tested the effect of our compounds on OPC proliferation and differentiation, through cell counting, measure of filaments, and analysis of proliferation/differentiation markers (Figure 7). […]
After 24 hours, the viability was evaluated through the MTT assay. […]
(§3) 48 hours, for cell counting and measure of filaments, 5 random images for each condition were acquired with an Eclipse TS100 (Nikon) microscope using a 10X objective. Cells number and filament length were measured with Fiji ImageJ2 software. After 48 hours for proliferation and 72 hours of treatment for differentiation analysis, cells were lysed in ice-cold lysis buffer (50 mM Tris-HCl pH 7.4, 1% SDS, 0.05% protease inhibitor cocktail; all from Sigma-Aldrich) and protein content was determined by using the Lowry method. […]

The subject of a further data set is Olig2. The data set can be described thus: Oli-Neu proliferation marker Olig2 expression (Western blot). The format is cell-based, mouse. The conditions noted are these: Oli-Neu cells, 5 μM, 48 h.
From the text: as §1
Oli-Neu cells were grown in SATO medium (DMEM medium, 2 mM glutamine, 10 μg/ml insulin, 5.5 μg/ml transferrin, 38.72 nM sodium selenite, 100 µM putrescine, 520 nM L-thyroxine (T4), 500 nM triiodo-L-thyronine (T3), 200 nM progesterone, 25 μg/ml of gentamycin) supplemented with 1% heat-inactivated horse serum (HS) in a humidified, 5% CO2 incubator at 37°C. Cell culture medium and all chemicals were from Sigma-Aldrich, except for insulin-transferrin-sodium selenite 100X supplement (Life Technologies Corporation). Cells were plated on 96 well plates, previously coated with 10 μg/mL poly-L-lysine (Sigma-Aldrich; 10 μg/ml) at the density of 2.5 x 10 4/0.2 mL medium/well and treated with increasing concentrations of the compounds (0.5, 1, 5 and 10 μM).
After 24 hours, the viability was evaluated through the MTT assay.
as §2, §3

Consider `CC/C=C\C/C=C\C/C=C\CCCCCCCC(=O)OCCOC(=O)C(CCC)CCC` [compound 4], for which the “cell survival/death in CGNs, % mean ± SE of controls (MTT)” value (shortened to “cell survival/death in CGNs, % mean ± SE”) in data set [1] (5 μM) is 118 ± 16%; in data set [1] (10 μM), 114 ± 3%; in data set [1] (25 μM) it was 71 ± 8%; in data set [1] (50 μM) it was 45% and 45 ± 8 ^b %. Further, the “cell survival/death in HepG2 cells, % mean ± SE of controls (MTT)” value in data set [2] (5 μM) was 95 ± 14%; in data set [2] (10 μM), 99 ± 5%; in data set [2] (25 μM) it was 75 ± 12%; in data set [2] (50 μM), 74 ± 12%.

Regarding `Nc1c2c(nc3ccccc13)CCCC2` [tacrine], the “BBB penetration estimation, CNS (+/−)” value in data set [3] is “CNS +”.

As for `CC/C=C\C/C=C\C/C=C\CCCCCCCC(=O)OCCNC(=O)C(CCC)CCC` [compound 3], the “cell survival/death in CGNs, % mean ± SE” value in data set [1] (5 μM) is 119 ± 17%; in data set [1] (10 μM), 116 ± 3%; in data set [1] (25 μM), 99 ± 17%; in data set [1] (50 μM), 41% and 41 ± 6 ^b %. Moreover, the “cell survival/death in HepG2 cells, % mean ± SE of controls (MTT)” value was found to be 86 ± 10% in data set [2] (5 μM), 92 ± 3% in data set [2] (10 μM), 84 ± 10% in data set [2] (25 μM) and 75 ± 13% in data set [2] (50 μM).

`CNC(=C[N+](=O)[O-])NCCSCc1ccc(CN(C)C)o1` [ranitidine, reference compound]: in data set [4], the “BBB penetration estimation, CNS (+/−)” value is “CNS –”.

As to `CC/C=C\C/C=C\C/C=C\CCCCCCCC(=O)O` [ALA, α-linolenic acid, reference compound], the “cell survival/death in CGNs, % mean ± SE” value was 93 ± 13% in data set [1] (5 μM); 97 ± 3% in data set [1] (10 μM); 79 ± 12% in data set [1] (25 μM); 45% and 45 ± 5 ^b % in data set [1] (50 μM). Also, the “cell survival/death in HepG2 cells, % mean ± SE of controls (MTT)” value in data set [2] (5 μM) is 109 ± 17%; in data set [2] (10 μM) it was 90 ± 5%; in data set [2] (25 μM) it was 91 ± 13%; in data set [2] (50 μM), 92 ± 9%.

Turning to `CCCC(CCC)C(=O)O` [VPA, valproic acid, reference compound], in the data set on Oli-Neu cells, the Oli-Neu cell number result is “decrease cell number” and the Oli-Neu filament length result was “parallel increase in filament length”. Further, the “neurotoxicity profile in CGNs (in words)” value in data set [1] (5-50 μM, 24 h) was “negligible neurotoxicity”. In addition, in the data set with CNPase, the “expression of CNPase, marker of differentiation” value is reported as “significant increase”. Besides, the “expression of Olig2, marker of OPCs proliferation” value with Olig2 is “marked decrease”.
